This passage reports inhibition results from PubChem BioAssay AID504520 (The Scripps Research Institute Molecular Screening Center, 2011).

Holding throughout (test): competitive ABPP of LYPLA1 versus anti-target hydrolases – fluorescence, gel-based ABPP, mouse proteome, late-stage follow-up (AID 504520);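 also: soluble proteome from BW5147 murine T cells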
What all share (settings): FP-rhodamine fluorescence, stronger effect = higher value

Test [1] concerns the target Platelet-activating factor acetylhydrolase 2, cytoplasmic (Mus musculus) (UniProt Q8VDG7).
For test [2], the system named is ESD.
Test [3] concerns LYPLA2.
For test [4], the system named is ABHD11.
Test [5] concerns LYPLA1.

The source made the active and inactive calls. No rule for the calls is given here.

Sequence of Platelet-activating factor acetylhydrolase 2, cytoplasmic (Mus musculus) (Q8VDG7 whole entry, looked up): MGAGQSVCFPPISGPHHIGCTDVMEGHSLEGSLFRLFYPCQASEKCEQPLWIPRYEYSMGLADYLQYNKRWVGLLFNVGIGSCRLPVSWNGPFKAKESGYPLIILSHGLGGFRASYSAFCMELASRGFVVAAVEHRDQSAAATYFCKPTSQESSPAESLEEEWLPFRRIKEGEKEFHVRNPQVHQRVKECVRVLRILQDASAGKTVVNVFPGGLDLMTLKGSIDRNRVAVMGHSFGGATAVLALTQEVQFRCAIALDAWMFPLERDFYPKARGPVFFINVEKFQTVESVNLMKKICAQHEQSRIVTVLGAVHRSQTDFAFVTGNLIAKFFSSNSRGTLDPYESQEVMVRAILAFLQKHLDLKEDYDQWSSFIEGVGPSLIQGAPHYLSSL

As to `O=C(N(c1ccccc1)c1ccccc1)n1ncc(-c2cc(F)cc(F)c2)n1`, the inhibition in test [1] (PAFAH2, at 0.75 µM) was 50% (inactive); in test [1] (PAFAH2, inhibition, at 0.03 µM) it was 0%; in test [1] (PAFAH2, inhibition, at 0.15 µM), 0%; in test [2] (at 0.75 µM) it was 0% (inactive); in test [2] (inhibition, at 0.03 µM) it was 0%; in test [2] (inhibition, at 0.15 µM), 0%. The inhibition was 0% (inactive) in test [3] (at 0.75 µM); 0% in test [3] (inhibition, at 0.03 µM); 0% in test [3] (inhibition, at 0.15 µM); 50% (inactive) in test [4] (at 0.75 µM); 0% in test [4] (inhibition, at 0.03 µM); 0% in test [4] (inhibition, at 0.15 µM). The inhibition in test [5] (at 0.75 µM) was 0% (inactive); in test [5] (inhibition, at 0.03 µM) it was 0%; in test [5] (inhibition, at 0.15 µM), 0%.

As for `COCCCC1CCCCN1C(=O)n1ncc(C(O)(c2ccccc2)c2ccccc2)n1` (stereo not given), the inhibition in test [1] (PAFAH2, at 0.75 µM) was 0% (inactive); in test [1] (PAFAH2, inhibition, at 0.03 µM), 0%; in test [1] (PAFAH2, inhibition, at 0.15 µM), 0%; in test [2] (at 0.75 µM), 0% (inactive); in test [2] (inhibition, at 0.03 µM), 0%; in test [2] (inhibition, at 0.15 µM), 0%. Also, the inhibition is 0% (inactive) in test [3] (at 0.75 µM); 0% in test [3] (inhibition, at 0.03 µM); 0% in test [3] (inhibition, at 0.15 µM); 75% in test [4] (at 0.75 µM); 0% in test [4] (inhibition, at 0.03 µM); 50% in test [4] (inhibition, at 0.15 µM). Besides, the inhibition in test [5] (at 0.75 µM) was 0% (inactive); in test [5] (inhibition, at 0.03 µM) it was 0%; in test [5] (inhibition, at 0.15 µM), 0%.

As for `O=C(N1CCCCC1)n1ncc(C(O)(c2ccccc2)c2ccccc2)n1`, the inhibition in test [1] (PAFAH2, at 0.75 µM) was 0% (inactive); in test [1] (PAFAH2, inhibition, at 0.03 µM), 0%; in test [1] (PAFAH2, inhibition, at 0.15 µM), 0%; in test [2] (at 0.75 µM), 25% (inactive); in test [2] (inhibition, at 0.03 µM), 0%; in test [2] (inhibition, at 0.15 µM), 0%. In addition, the inhibition in test [3] (at 0.75 µM) is 0% (inactive); in test [3] (inhibition, at 0.03 µM), 0%; in test [3] (inhibition, at 0.15 µM), 0%; in test [4] (at 0.75 µM) it was 100%; in test [4] (inhibition, at 0.03 µM), 100%; in test [4] (inhibition, at 0.15 µM), 100%. Moreover, the inhibition in test [5] (at 0.75 µM) is 100%; in test [5] (inhibition, at 0.03 µM), 50%; in test [5] (inhibition, at 0.15 µM), 100%.

For `O=C(OC(c1ccccc1)c1cnn(C(=O)N2CCCCC2)n1)N1CCCCC1` (stereo not given), the inhibition in test [1] (PAFAH2, at 0.75 µM) is 100%; in test [1] (PAFAH2, inhibition, at 0.03 µM) it was 0%; in test [1] (PAFAH2, inhibition, at 0.15 µM) it was 100%; in test [2] (at 0.75 µM), 50% (inactive); in test [2] (inhibition, at 0.03 µM), 0%; in test [2] (inhibition, at 0.15 µM) it was 25%. Further, the inhibition in test [3] (at 0.75 µM) is 25% (inactive); in test [3] (inhibition, at 0.03 µM), 0%; in test [3] (inhibition, at 0.15 µM), 0%; in test [4] (at 0.75 µM), 100%; in test [4] (inhibition, at 0.03 µM), 100%; in test [4] (inhibition, at 0.15 µM), 100%. Also, the inhibition in test [5] (at 0.75 µM) was 100%; in test [5] (inhibition, at 0.03 µM), 100%; in test [5] (inhibition, at 0.15 µM), 100%.

In the case of `CC1CCN(C(=O)n2ncc(C(O)(c3ccccc3)c3ccccc3)n2)CC1`, the inhibition in test [1] (PAFAH2, at 0.75 µM) is 25% (inactive); in test [1] (PAFAH2, inhibition, at 0.03 µM) it was 0%; in test [1] (PAFAH2, inhibition, at 0.15 µM), 0%; in test [2] (at 0.75 µM), 0% (inactive); in test [2] (inhibition, at 0.03 µM), 0%; in test [2] (inhibition, at 0.15 µM), 0%. The inhibition was 50% (inactive) in test [3] (at 0.75 µM); 0% in test [3] (inhibition, at 0.03 µM); 0% in test [3] (inhibition, at 0.15 µM); 100% in test [4] (at 0.75 µM); 100% in test [4] (inhibition, at 0.03 µM); 100% in test [4] (inhibition, at 0.15 µM). The inhibition was 100% in test [5] (at 0.75 µM); 50% in test [5] (inhibition, at 0.03 µM); 100% in test [5] (inhibition, at 0.15 µM).

Take `COc1ccc2cc(-c3cnn(C(=O)N(c4ccccc4)c4ccccc4)n3)ccc2c1`: the inhibition is 50% (inactive) in test [1] (PAFAH2, at 0.75 µM); 0% in test [1] (PAFAH2, inhibition, at 0.03 µM); 0% in test [1] (PAFAH2, inhibition, at 0.15 µM); 0% (inactive) in test [2] (at 0.75 µM); 0% in test [2] (inhibition, at 0.03 µM); 0% in test [2] (inhibition, at 0.15 µM). In addition, the inhibition in test [3] (at 0.75 µM) was 0% (inactive); in test [3] (inhibition, at 0.03 µM), 0%; in test [3] (inhibition, at 0.15 µM), 0%; in test [4] (at 0.75 µM) it was 25% (inactive); in test [4] (inhibition, at 0.03 µM), 0%; in test [4] (inhibition, at 0.15 µM) it was 0%. The inhibition is 0% (inactive) in test [5] (at 0.75 µM); 0% in test [5] (inhibition, at 0.03 µM); 0% in test [5] (inhibition, at 0.15 µM).

As to `O=C(N1CCCC(Cc2ccccc2)C1)n1cc(C(O)(c2ccccc2)c2ccccc2)nn1` (stereo not given), the inhibition in test [1] (PAFAH2, at 0.75 µM) was 0% (inactive); in test [1] (PAFAH2, inhibition, at 0.03 µM), 0%; in test [1] (PAFAH2, inhibition, at 0.15 µM), 0%; in test [2] (at 0.75 µM), 0% (inactive); in test [2] (inhibition, at 0.03 µM), 0%; in test [2] (inhibition, at 0.15 µM) it was 0%. In addition, the inhibition in test [3] (at 0.75 µM) is 25% (inactive); in test [3] (inhibition, at 0.03 µM), 0%; in test [3] (inhibition, at 0.15 µM), 0%; in test [4] (at 0.75 µM), 100%; in test [4] (inhibition, at 0.03 µM) it was 100%; in test [4] (inhibition, at 0.15 µM), 100%. The inhibition in test [5] (at 0.75 µM) was 100%; in test [5] (inhibition, at 0.03 µM) it was 0%; in test [5] (inhibition, at 0.15 µM), 50%.
